According to patent US20260258084A1, “New Peptides as Selective IL-23 Receptor Antagonists” (Sanofi, priority 2022, published 2026):
In brackets after ≈: the same amount, converted by molar mass. Where two headings read alike, the source gives them in different places. Starred links: 1 amine or outer side, 2 acyl side, 3 side chain; linkers in the order of their positions; H or OH if unused. Positions of bridges follow the written chain, without caps; N, C: chain ends. Non-standard residues stand in square brackets, D forms with d. Residues, ends and D or L forms follow the SMILES beside them. *: point of attachment. Yde = (2S)-2-amino-3-[4-[2-(dimethylamino)ethoxy]phenyl]propanoic acid, CN(C)CCOc1ccc(C[C@H](N[*:1])C(=O)[*:2])cc1; NdmK = (2S)-6-amino-2-(dimethylamino)hexanoic acid, CN(C)[C@@H](CCCCN[*:3])C(=O)[*:2]; Trp(7-Me) = Cc1cccc2c(C[C@H](N)C(=O)O)c[nH]c12; X1 = O=C(CCCCN[*:3])N[C@@H](CS[*:2])C(=O)[*:1]; αMeLys(Me2) = CN(C)CCCC[C@](C)(N)C(=O)O; 2Nal = N[C@@H](Cc1ccc2ccccc2c1)C(=O)O; εLys = N[C@@H](CCCCN[*:1])C(=O)[*:2]; NMe5Ava = CN(CCCCC(=O)[*:2])[*:1]; 3Pal = N[C@@H](Cc1cccnc1)C(=O)O; NMeN = CN[C@@H](CC(N)=O)C(=O)O; αMeL = CC(C)C[C@](C)(N)C(=O)O; Thp = NC1(C(=O)O)CCOCC1; Me2NCH2CH2 = CN(C)CC*; Aib = CC(C)(N)C(=O)O; Ahx = NCCCCCC(=O)O; Ava = NCCCCC(=O)O; Sar = CNCC(=O)O

T1: recombinant human IL-23R-Fc chimera (human, UniProt Q5VWK5 24-353)
T1 construct: used at 0.1 µg/ml in the ELISA; not shown: Fc part of the chimera; detected with goat anti-hu-IgG1-HRP a
T1 sequence (looked up): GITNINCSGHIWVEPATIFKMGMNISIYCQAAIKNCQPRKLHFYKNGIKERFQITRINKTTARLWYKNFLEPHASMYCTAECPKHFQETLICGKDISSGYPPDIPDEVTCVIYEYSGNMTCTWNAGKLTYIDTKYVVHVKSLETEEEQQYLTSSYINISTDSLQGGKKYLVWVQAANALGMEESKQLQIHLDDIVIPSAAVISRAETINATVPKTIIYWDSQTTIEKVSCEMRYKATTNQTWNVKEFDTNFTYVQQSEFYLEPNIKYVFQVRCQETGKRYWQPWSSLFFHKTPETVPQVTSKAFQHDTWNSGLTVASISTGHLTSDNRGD

T2: IL-23 receptor on the surface of HEK-Blue IL-23 cells (UniProt Q5VWK5 24-629, limits assumed)
T2 sequence (looked up): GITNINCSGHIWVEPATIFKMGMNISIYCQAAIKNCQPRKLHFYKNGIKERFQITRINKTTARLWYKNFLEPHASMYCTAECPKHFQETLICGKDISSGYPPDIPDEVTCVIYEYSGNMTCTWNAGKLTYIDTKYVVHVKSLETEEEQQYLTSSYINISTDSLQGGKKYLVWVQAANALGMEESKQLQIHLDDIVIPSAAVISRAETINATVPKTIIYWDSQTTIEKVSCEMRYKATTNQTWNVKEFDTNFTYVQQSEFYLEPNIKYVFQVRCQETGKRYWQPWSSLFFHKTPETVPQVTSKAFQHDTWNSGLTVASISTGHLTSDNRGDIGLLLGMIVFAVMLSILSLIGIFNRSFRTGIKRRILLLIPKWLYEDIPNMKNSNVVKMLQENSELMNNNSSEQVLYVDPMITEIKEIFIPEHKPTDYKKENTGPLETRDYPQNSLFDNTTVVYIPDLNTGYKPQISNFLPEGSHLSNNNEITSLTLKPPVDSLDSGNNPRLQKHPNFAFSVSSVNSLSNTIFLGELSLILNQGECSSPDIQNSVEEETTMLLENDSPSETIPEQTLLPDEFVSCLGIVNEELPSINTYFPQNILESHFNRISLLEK

B1: Pen peptide compound of SEQ ID NO: 163 (peptide)
peptide: XXNTWQXXXXENN
modifications: not fully specified; Apt(§1)-Pen(@2)-N-T-W-Q-Pen(@2)-Yae-Nal-Thp-E(§1)-N-N-NH2
B2: Compound of SEQ ID NO: 61 (peptide)
peptide: [NMe5Ava]C[NdmK][Trp(7-Me)]K(Ac)C[Yde][2Nal][αMeLys(Me2)]EN[3Pal][Sar]-NH2
modifications: lactam N-10; disulfide 2-6
B3: Compound of SEQ ID NO: 35 (peptide)
peptide: [Ava]CNT[Trp(7-Me)]K(Ac)C[Yde][2Nal][Thp]EN[3Pal][Sar]-NH2
modifications: lactam N-11; disulfide 2-7
SMILES: CC(=O)NCCCC[C@@H]1NC(=O)[C@H](Cc2c[nH]c3c(C)cccc23)NC(=O)[C@H]([C@@H](C)O)NC(=O)[C@H](CC(N)=O)NC(=O)[C@@H]2CSSC[C@H](NC1=O)C(=O)N[C@@H](Cc1ccc(OCCN(C)C)cc1)C(=O)N[C@@H](Cc1ccc3ccccc3c1)C(=O)NC1(CCOCC1)C(=O)N[C@H](C(=O)N[C@@H](CC(N)=O)C(=O)N[C@@H](Cc1cccnc1)C(=O)N(C)CC(N)=O)CCC(=O)NCCCCC(=O)N2
B4: Compound of SEQ ID NO: 65 (peptide)
peptide: [Ava]CNT[Trp(7-Me)]K(Ac)C[Yde][2Nal][αMeL]EN[3Pal][Sar]-NH2
modifications: lactam N-11; disulfide 2-7
SMILES: CC(=O)NCCCC[C@@H]1NC(=O)[C@H](Cc2c[nH]c3c(C)cccc23)NC(=O)[C@H]([C@@H](C)O)NC(=O)[C@H](CC(N)=O)NC(=O)[C@@H]2CSSC[C@H](NC1=O)C(=O)N[C@@H](Cc1ccc(OCCN(C)C)cc1)C(=O)N[C@@H](Cc1ccc3ccccc3c1)C(=O)N[C@@](C)(CC(C)C)C(=O)N[C@H](C(=O)N[C@@H](CC(N)=O)C(=O)N[C@@H](Cc1cccnc1)C(=O)N(C)CC(N)=O)CCC(=O)NCCCCC(=O)N2
B5: Compound of SEQ ID NO: 28 (peptide)
peptide: [Ava]C[εLys](Ac)WQC[Yde][2Nal][αMeL]ENN-NH2
modifications: lactam N-10; disulfide 2-6; also: Cys2 carboxyl bonded to Lys3 epsilon-NH2 (isopeptide), Lys3 alpha-N acetylated

How the values were obtained:
[1] = biological target: T3, human interleukin-23 receptor (recombinant human IL-23R-Fc chimera) (Homo sapiens, UniProt Q5VWK5); assay: Human ELISA IL23/IL23R (assay for specific human IL23R antagonists); format: binding; settings: Table 10; read-out: Human ELISA IL23/IL23R IC50
T3 construct: Fc (IgG Fc fusion)
Procedure, shortened: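 Competition format: peptide dilutions compete for IL23R-Fc chimera (0.1 μg/ml final, 60 min, room temperature) binding to immobilized human IL23 coated at […] overnight at 4 °C. Read-out is fluorogenic HRP signal from goat anti-hu-IgG1 detecting captured receptor.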

[2] = Chemical stability assessment of peptides (relative purity loss); format: physicochemical; settings: 24 hours at 37° C.; for Chemical stability (relative purity loss) Buffer pH 1.2: 50 mM HCl pH 1.2 + acetonitrile (1:1); for Chemical stability (relative purity loss) Buffer pH 6.5: 50 mM phosphate buffer pH 6.5 + acetonitrile (1:1); for Chemical stability (relative purity loss) Buffer pH 7.4: 50 mM phosphate buffer pH 7.4 + acetonitrile (1:1)
Procedure, shortened: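 Peptide solutions at 1 mg/ml (purity-corrected) in 1:1 acetonitrile with 50 mM HCl pH 1.2, or 50 mM phosphate pH 6.5 or pH 7.4, held 24 hours at 2° C. and 37° C. Supernatants analysed by UHPLC-UV; relative purity loss taken as percent drop in peak-area purity from 0 to 24 hours at 37° C.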

[3] = Solubility testing of peptides at different pH; format: physicochemical; settings: target concentration 1 mg/ml, 2 hours agitation
Procedure, shortened: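 Four buffers were used: 50 mM HCl pH 1.2 and 50 mM phosphate at pH 6.5, 7.4 and 9.0, each receiving dried-down compound at a 1 mg/mL target. After 2 h gentle shaking and 0.45 μm filtration, UV peak areas were compared with a DMSO standard curve of known concentration, allowing for extinction coefficients.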

[4] = test system: Pancreatin; assay: Protease stability in simulated intestinal fluid (Pancreatin-SIF, FaSSIF); format: in vitro ADME; settings: 1 μM peptide, 37° C.; for remaining at 1 h, 1 µM: 60 min, read-out: FaSSIF 60 (min), remaining percent of peptide; for remaining at 2 h, 1 µM: 120 min, read-out: FaSSIF 120 (min), remaining percent of peptide; for remaining at 4 h, 1 µM: 240 min, read-out: FaSSIF 240 (min), remaining percent of peptide
Procedure, shortened: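 LC-MS/MS peak areas at 0, 60, 120 and 240 min, normalised to time 0 as 100%, give percent remaining. Reactions used 1 μM final peptide at 37° C in pancreatin-SIF (1 mg pancreatin in 10 mL SIF concentrate) and were stopped with ethanol containing 0.1% HCOOH.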

[5] = test system: T4, Pepsin; assay: Protease stability in simulated gastric fluid (Pepsin-SGF, FaSSGF); format: in vitro ADME; settings: simulated gastric fluid with pepsin (Pepsin-SGF), 60 min, 1 μM peptide, 37° C., read-out: FaSSGF 60 (min), remaining percent of peptide
T4 construct: purchased Merck Millipore
Procedure, shortened: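 LCMS/MS peak areas, normalised to the time-0 sample as 100%, give percent remaining. Conditions: 37° C incubation of 1 μM final peptide in simulated gastric fluid with pepsin; ethanol/0.1% HCOOH quench at 0, 60, 120, 240 min.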

[6] = test system: IL-23 induced STAT3 signaling in HEK-Blue™ IL-23 cells; assay: IL-23 induced STAT3 signaling in HEK-Blue IL-23 cells (SEAP reporter); format: cell-based; settings: human IL23 0.25 ng/ml, read-out: pSTAT3
Procedure, shortened: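 Secreted SEAP, read at OD 620-655 nm after 45 min QUANTI-Blue development, reports STAT3 activation. Beforehand, cells were exposed to peptide dilutions for 60 min at 37 °C and then to 0.25 ng/ml final human IL-23 overnight, at 10,000 cells/well.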

[7] = biological target: T1, recombinant human IL-23R-Fc chimera; assay: competition ELISA: IL-23R-Fc binding to coated human IL23
Experimental: Antagonism of compounds for human interleukin-23 receptor antagonists, was determined by an ELISA assay.
A 384-well plate was coated with 50 μl/well of human IL23 at a final concentration of […] and incubated overnight at 4° C. The wells were washed 3 times with 80 μl wash buffer and blocked with 80 μl blocking buffer for 60 minutes at room temperature and washed again. 20 μl of serially diluted test peptides was added to each well and subsequently 20 μl of recombinant human IL-23R-Fc chimera at final concentration of 0.1 μg/ml. The plate was incubated for 60 minutes at room temperature. After the wells were washed, bound IL23R-Fc was detected with goat anti-hu-IgG1-HRP antibody. Signals were visualized with QuantaBlu Fluorogenic Peroxidase Substrate.

[8] = biological target: T2, IL-23 receptor on the surface of …; assay: cell-based or functional assay
[9] = 50 mM HCl buffer, 50 mM HCl pH 1.2, read-out: Solubility Buffer pH 1.2
[10] = 50 mM phosphate buffer pH 6.5, read-out: Solubility Buffer pH 6.5
[11] = 50 mM phosphate buffer pH 7.4, read-out: Solubility Buffer pH 7.4

Row | Molecule | IC50 [1] [nM] | Chemical stability (relative purity loss) Buffer pH 1.2 [2] [%] | Chemical stability (relative purity loss) Buffer pH 6.5 [2] [%] | Chemical stability (relative purity loss) Buffer pH 7.4 [2] [%] | solubility at 2 h [3, 9] [µg/mL] | solubility at 2 h [3, 10] [µg/mL] | solubility at 2 h [3, 11] [µg/mL] | remaining at 1 h, 1 µM [4] [%] | remaining at 2 h, 1 µM [4] [%] | remaining at 4 h, 1 µM [4] [%] | remaining at 1 h, 1 µM [5] [%] | IC50 [6] [nM] | IC50 [7] [nM] | pSTAT3 (nM) [8] [nM]
1 | COc1ccc(C[C@@H]2NC(=O)[C@@H]3CSSC[C@H](NC(=O)CCCCCNC(=O)CC[C@@H](C(=O)N[C@@H](CC(N)=O)C(=O)N[C@@H](CC(N)=O)C(N)=O)NC(=O)C(C)(C)NC(=O)[C@H](Cc4ccc5ccccc5c4)NC2=O)C(=O)N[C@@H](CC(N)=O)C(=O)N[C@@H]([C@@H](C)O)C(=O)N[C@@H](Cc2c[nH]c4ccccc24)C(=O)N[C@@H](CCC(N)=O)C(=O)N3)cc1 [compound 2] ([Ahx]CNTWQCY(Me)[2Nal][Aib]ENN-NH2; disulfide 2-7; lactam N-11) | 0.6 | 27.5 | 0.1 | 0.8 | 100 (≈ 60.1 µM) | < 50 | < 50 | 71 | 71 | 47 | 1 | 54 |  | 
2 | COc1ccc(C[C@@H]2NC(=O)[C@@H]3CSSC[C@H](NC(=O)CCCCCNC(=O)C[C@@H](C(=O)N[C@@H](CC(N)=O)C(=O)N[C@@H](CC(N)=O)C(N)=O)NC(=O)C(C)(C)NC(=O)[C@H](Cc4ccc5ccccc5c4)NC2=O)C(=O)N(C)[C@@H](CC(N)=O)C(=O)N[C@@H]([C@@H](C)O)C(=O)N[C@@H](Cc2c[nH]c4ccccc24)C(=O)N[C@@H](CCC(N)=O)C(=O)N3)cc1 [compound 6] ([Ahx]C[NMeN]TWQCY(Me)[2Nal][Aib]DNN-NH2; disulfide 2-7; lactam N-11) | 0.68 | 27.4 |  | 3.1 | 40 (≈ 24.1 µM) | 30 (≈ 18 µM) | 20 (≈ 12 µM) | 78 | 77 | 51 | 1 | 72.9 |  | 
3 | CC(=O)N[C@H]1CCCCNC(=O)[C@@H]2CSSC[C@H](NC(=O)[C@H](CCC(N)=O)NC(=O)[C@H](Cc3c[nH]c4ccccc34)NC1=O)C(=O)N[C@@H](Cc1ccc(OCCN(C)C)cc1)C(=O)N[C@@H](Cc1ccc3ccccc3c1)C(=O)NC1(CCOCC1)C(=O)N[C@H](C(=O)N[C@@H](CC(N)=O)C(=O)NCC(N)=O)CCC(=O)NCCCCC(=O)N2 [compound 30] (Ac-KWQCY(Me2NCH2CH2)[2Nal][Thp]ENG-NH2; linker 1-4-8 via X1) | 0.54 | 18.7 | 2.1 | 3.7 |  |  |  | 93 | 92 | 83 | 87 | 5.41 |  | 
4 | B1 |  |  |  |  |  |  |  |  |  |  |  |  | 163 | 
5 | B2 |  |  |  |  |  |  |  |  |  |  |  |  | 0.36 | 4.4
6 | B3 |  |  |  |  |  |  |  |  |  |  |  |  | 0.34 | 0.34
7 | B4 |  |  |  |  |  |  |  |  |  |  |  |  | 0.37 | 0.23
8 | B5 |  |  |  |  |  |  |  |  |  |  |  |  | 0.39 | 4.11
